This note sets out measurements from US8575143B2, “3-aryl-substituted quinazolones, and uses thereof” (Prolexys Pharmaceuticals, Inc., priority 2005, dated 2013).

The subject of one data set is tumor cells. The data set can be described thus: Sytox primary screen, inhibition of growth of tumor cells. As to conditions: compound in DMSO, 48 hours exposure, Sytox read. The class given is cell-based. The procedure: The ability of Compound 1, in DMSO, to inhibit the growth of tumor and normal cells was measured. The compound was assayed by the Sytox primary screen, a phenotypic assay which monitors alterations in cell survival-proliferation as a result of compound treatment. It was devised as high throughput method to identify compounds which specifically alter the growth potential of cells harboring the causative mutations found in cancer patients while not affecting the growth of normal cells. The assay relies upon an inexpensive, simple and reliable readout of a membrane impermeable fluorescent dye (Sytox, from Molecular Probes) which binds to nucleic acid. In healthy cells, no signal is detected because the cell's membrane is intact and the dye will not enter. However, if a cell's membrane is compromised as a result of apoptosis or necrosis, a fluorescent signal proportional to the number of similarly affected cells will be detected. By utilizing a two-step readout (final read in the presence of detergent to permit labeling of all cells), the assay can identify compounds which produce cytostasis, cytotoxicity and/or mitogenesis. The first read or “dead cell” read, provides an estimate of the toxicity of a given compound by indicating the number of dead or dying cells in the culture at the time of assay. […]

Another data set has as its system HT-1080 cells. The data set can be described thus: Sytox assay, inhibition of growth of HT-1080 cells. As to conditions: Homo sapiens, 48 hours exposure. The class given is cell-based. The procedure: The ability of Compound 1, in DMSO, to inhibit the growth of tumor and normal cells was measured. The compound was assayed by the Sytox primary screen, a phenotypic assay which monitors alterations in cell survival-proliferation as a result of compound treatment. It was devised as high throughput method to identify compounds which specifically alter the growth potential of cells harboring the causative mutations found in cancer patients while not affecting the growth of normal cells. The assay relies upon an inexpensive, simple and reliable readout of a membrane impermeable fluorescent dye (Sytox, from Molecular Probes) which binds to nucleic acid. In healthy cells, no signal is detected because the cell's membrane is intact and the dye will not enter. However, if a cell's membrane is compromised as a result of apoptosis or necrosis, a fluorescent signal proportional to the number of similarly affected cells will be detected. By utilizing a two-step readout (final read in the presence of detergent to permit labeling of all cells), the assay can identify compounds which produce cytostasis, cytotoxicity and/or mitogenesis. The first read or “dead cell” read, provides an estimate of the toxicity of a given compound by indicating the number of dead or dying cells in the culture at the time of assay. The second read or “total cell” read, captures both the cumulative effects of cytoxicity in reducing the size of the cell population as well as any cytostatic or anti-proliferative effects a test compound may exert on the cells in the test population in the absence of toxicity.
Cells were seeded overnight in 96 well plates at densities that without treatment would permit 95% confluence in the wells 72 hours later. The following day, the cells were exposed to test compounds in a dilution series for a period of 48 hours. Following this incubation period, the Sytox reagent was added to the cultures at the manufacturer's recommended concentration and the dead cell fluorescence read was taken. After completion of this measurement, the detergent Saponin was added to each well of the cultures to permeabilize the membranes allowing the Sytox reagent to enter every cell, thereby facilitating measurement of the total number of cells remaining in the culture.
The ability of various compounds of the invention, in DMSO, to inhibit the growth of HT-1080 cells was measured. The HT-1080 cell line used in these experiments was derived from a patient with fibrosarcoma and harbors an activating mutation in the N-ras gene at codon 12. The compound was assayed using the assay described in Example 3. The results of the assay are shown in the table below, where the activity corresponds to the following ranges: A—less than 10 nM, B—10-100 nM, C—100-1000 nM, D—1000-2000 nM, E—greater than 2000 nM.

Data set [1] can be described thus: IV maximum tolerated dose (MTD). The conditions noted are these: Nude Balb/c, mouse, in vivo, QD x 5 days, mice.
For a further data set, the system named is HT-1080 xenografts. As to the kind of experiment: HT-1080 tumor xenograft, daily IV administration for 5 days. It counts as in vivo. As to conditions: nude Balb/c mice, QD x 5 days. The procedure:
The ability of compounds 10 and 25 to inhibit the growth of HT-1080 xenografts following daily, intravenous administration was examined using similar methods (described below). Compounds 10 and 25 were administered for 5 consecutive days and were evaluated at their respective IV MTD doses.
The HT-1080 cell line used in this xenograft study was derived from a patient with fibrosarcoma and harbors an activating mutation in the N-ras gene at codon 12. […] Robust tumor regression was observed when the compounds were administered at their respective MTD. No adverse clinical signs were observed
Nude Balb/c (Nu/Nu strain, Charles River Laboratories), female, 5-6 wks. old (˜22 g average body weight).
• A: Untreated Control, n=6 • B: Vehicle Control for Compound 10, QD×5 days, IV, n=6 • D: Compound 10 @ 25 mg/Kg (MTD), QD×5 days, IV, n=6 • E: Compound 10 @ 12.5 mg/Kg (½ MTD), QD×5 days, IV, n=6 Treatment Schedule: […]
Starting on Day 1, all animals were weighed, and tumor dimensions (L & W) were measured, every other day. […]
The resulting tumor volume values were averaged for each study group for each time point, and were then plotted against time. Variance was expressed as standard error of the mean (±SEM).

The mark [2] stands for this setting: Sytox read, read-out: IC50, inhibition of proliferation of HT-1080 cells.
Where [3] appears, read: compound in DMSO, Sytox assay of Example 3, read-out: Activity (inhibition of growth of HT-1080 cells).

Read-outs that look alike come from different tables or passages of the source. Bounds are passed on as bounds.

Turning to `CCOc1ccccc1-n1c(C(C)N2CCN(C(=O)COc3ccc(Cl)cc3)CC2)nc2cc(Cl)ccc2c1=O` (centres unmarked) [Compound 1, 2-(1-(4-(2-(4-chlorophenoxy)acetyl)piperazin-1-yl)ethyl)-7-chloro-3-(2-ethoxyphenyl)quinazolin-4(3H)-one], the IC50 with tumor cells was approximately 10000 nM.

For `CCOc1ccccc1-n1c(CN2CCNCC2)nc2cccc(Cl)c2c1=O` [Compound 2, 5-chloro-3-(2-ethoxyphenyl)-2-(piperazin-1-ylmethyl)quinazolin-4(3H)-one], the IC50 in the data set on HT-1080 cells (setting [2]) is 100 nM; with HT-1080 cells (setting [3]) it was 10 to 100 nM.

Take `CCOc1cc([N+](=O)[O-])ccc1-n1c(CN2CCCNCC2)nc2ccccc2c1=O` [Compound 3, 2-((1,4-diazepan-1-yl)methyl)-3-(2-ethoxy-4-nitrophenyl)quinazolin-4(3H)-one]: the IC50 is 200 nM in the data set with HT-1080 cells (setting [2]) and 100 to 1000 nM in the data set with HT-1080 cells (setting [3]).

What is called MTD is the highest dose tested that stayed within the study's limit of toxicity. Compound `CCOc1ccccc1-n1c(C(C)N2CCCN(C)CC2)nc2cc(N)ccc2c1=O` (centres unmarked) [Compound 10, 7-amino-3-(2-ethoxyphenyl)-2-(1-(4-methyl-1,4-diazepan-1-yl)ethyl)quinazolin-4(3H)-one] returned an MTD at 5 days in data set [1] of 25 mg/kg. For the same compound, the “inhibition in growth of HT-1080 cell xenograft” value in the data set with HT-1080 xenografts is recorded as “inhibition in growth”. In the data set on HT-1080 cells (setting [3]), the IC50 was less than 10 nM.

Turning to `CCOc1ccccc1-n1c(CN2CCCN(C)CC2)nc2cc(NCCOC)ccc2c1=O` [Compound 11, 3-(2-ethoxyphenyl)-7-(2-methoxyethylamino)-2-((4-methyl-1,4-diazepan-1-yl)methyl)quinazolin-4(3H)-one], the IC50 with HT-1080 cells (setting [3]) is more than 2000 nM.

Consider `CCOc1ccccc1-n1c(C(C)N2CCCN(C)CC2)nc2cc([N+](=O)[O-])ccc2c1=O` (centres unmarked) [Compound 12, 3-(2-ethoxyphenyl)-2-(1-(4-methyl-1,4-diazepan-1-yl)ethyl)-7-nitroquinazolin-4(3H)-one], for which the IC50 in the data set with HT-1080 cells (setting [3]) was in the range of 100 to 1000 nM.

For `CN1CCCN(Cc2nc3cc(N)ccc3c(=O)n2-c2ccc(F)cc2Cl)CC1` [Compound 13, 7-amino-3-(2-chloro-4-fluorophenyl)-2-((4-methyl-1,4-diazepan-1-yl)methyl)quinazolin-4(3H)-one], the IC50 in the data set on HT-1080 cells (setting [3]) is more than 2000 nM.

With `Nc1ccc2c(=O)n(-c3ccc(F)cc3Cl)c(CN3CCNCC3)nc2c1` [Compound 14, 7-amino-3-(2-chloro-4-fluorophenyl)-2-(piperazin-1-ylmethyl)quinazolin-4(3H)-one], the IC50 in the data set with HT-1080 cells (setting [3]) was more than 2000 nM.

Turning to `CCOc1ccccc1-n1c(CN2CCCN(C)CC2)nc2cc(NCCN3CCOCC3)ccc2c1=O` [Compound 15, 3-(2-ethoxyphenyl)-2-((4-methyl-1,4-diazepan-1-yl)methyl)-7-(2-morpholinoethylamino)quinazolin-4(3H)-one], the IC50 in the data set on HT-1080 cells (setting [3]) lay in the range of 100 to 1000 nM.

`CCOc1ccccc1-n1c(CN2CCCN(C)CC2)nc2cc(C(F)(F)F)ccc2c1=O` [Compound 16, 3-(2-ethoxyphenyl)-2-((4-methyl-1,4-diazepan-1-yl)methyl)-7-(trifluoromethyl)quinazolin-4(3H)-one]: the IC50 with HT-1080 cells (setting [3]) was 100 to 1000 nM.

On to `O=c1c2ccccc2nc(CN2CCNCC2)n1-c1c(F)cc(F)cc1Cl` [Compound 17, 3-(2-chloro-4,6-difluorophenyl)-2-(piperazin-1-ylmethyl)quinazolin-4(3H)one], for which the IC50 with HT-1080 cells (setting [3]) fell in the range of 100 to 1000 nM.

For `CN1CCCN(Cc2nc3ccccc3c(=O)n2-c2c(F)cc(F)cc2Cl)CC1` [Compound 18, 3-(2-chloro-4,6-difluorophenyl)-2-((4-methyl-1,4-diazepan-1-yl)methyl)quinazolin-4(3H)-one], the IC50 in the data set on HT-1080 cells (setting [3]) lay in the range of 100 to 1000 nM.

Turning to `CCOc1cc(F)ccc1-n1c(CN2CCCN(C)CC2)nc2cc(N)ccc2c1=O` [Compound 19, 7-amino-3-(2-ethoxy-4-fluorophenyl)-2-((4-methyl-1,4-diazepan-1-yl)methyl)quinazolin-4(3H)-one], the IC50 in the data set on HT-1080 cells (setting [3]) is less than 10 nM.

Take `CN1CCCN(Cc2nc3ccccc3c(=O)n2-c2ccc(OC(F)(F)F)cc2Cl)CC1` [Compound 20, 3-(2-chloro-4-(trifluoromethoxy)phenyl)-2-((4-methyl-1,4-diazepan-1-yl)methyl)quinazolin-4(3H)-one]: the IC50 in the data set with HT-1080 cells (setting [3]) fell in the range of 10 to 100 nM.

`O=c1c2ccccc2nc(CN2CCNCC2)n1-c1ccc(OC(F)(F)F)cc1Cl` [Compound 21, 3-(2-chloro-4-(trifluoromethoxy)phenyl)-2-(piperazin-1-ylmethyl)quinazolin-4(3H)-one]: in the data set on HT-1080 cells (setting [3]), the IC50 lay within 100 to 1000 nM.

On to `CN1CCCN(Cc2nc3cc(N)ccc3c(=O)n2-c2c(Cl)cccc2Cl)CC1` [Compound 22, 7-amino-3-(2,6-dichlorophenyl)-2-((4-methyl-1,4-diazepan-1-yl)methyl)quinazolin-4(3H)-one], for which the IC50 with HT-1080 cells (setting [3]) was 100 to 1000 nM.

Turning to `CCOc1ccccc1-n1c(CN2CCCN(C)CC2)nc2cc(F)ccc2c1=O` [Compound 24, 3-(2-ethoxyphenyl)-7-fluoro-2-((4-methyl-1,4-diazepan-1-yl)methyl)quinazolin-4(3H)-one], the IC50 in the data set with HT-1080 cells (setting [3]) is 100 to 1000 nM.

Take `CCOc1ccccc1-n1c(CN2CCCN(C)CC2)nc2cc(N)ccc2c1=O` [Compound 25, 7-amino-3-(2-ethoxyphenyl)-2-((4-methyl-1,4-diazepan-1-yl)methyl)quinazolin-4(3H)-one]: in the data set on HT-1080 xenografts, the “inhibition in growth of HT-1080 cell xenograft” value was “inhibition in growth”. In the data set on HT-1080 cells (setting [3]), the IC50 is less than 10 nM.
